Experimental data from patent EP0246774A1, “Chemical compounds” (SMITH KLINE & FRENCH LABORATORIES LIMITED, priority 1986, dated 1987).

tested on: histamine stimulated gastric acid secretion; test: Rat lumen perfused stomach, histamine stimulated gastric acid secretion (modified Ghosh and Schild procedure); assay type: in vivo; settings: intravenous administration
Excerpt: A. Rat : Lumen perfused stomach (histamine stimulated gastric acid secretion).
Using a modification of the procedure described by Ghosh and Schild (Br. J. Pharmacology, 13, 54, 1958), ED50 values after intravenous administration were obtained as follows: […]

Compound	ED50
COc1ccc2[nH]c([S+]([O-])Cc3nccc(N4CCOCC4)c3F)nc2c1 (stereo not shown) [Example 2, 5-methoxy-2-(4-morpholino-3-fluoro-2-pyridylmethylsulphinyl)-(lH)-benzimidazole]	0.7 µmol/kg
COc1cc2[nH]c([S+]([O-])Cc3nccc(N4CCOCC4)c3F)nc2cc1C (stereo not shown) [Example 14, 5-methyl-6-methoxy-2-(4-morpholino-3-fluoro-2-pyridylmethylsulphinyl)-(lH)-benzimidazole]	1.51 µmol/kg

same assay, conditions: intravenous administration, dose not given

Compound	% inhibition at µ/kg
COc1cc2nc([S+]([O-])Cc3nccc(N(C)C)c3F)[nH]c2cc1OC (stereo not shown) [Example 16, 5,6-dimethoxy-2-(4-dimethylamino-3-fluoro-2-pyridylmethylsulphinyl)-(lH)-benzimidazole]	46%
COc1cc2nc([S+]([O-])Cc3nccc(N4CCOCC4)c3F)[nH]c2cc1OC (stereo not shown) [Example 12, 5,6-dimethoxy-2-(4-morpholino-3-fluoro-2-pyridylmethylsulphinvl)-(lH)-benzimidazole]	33%
COc1ccc2[nH]c([S+]([O-])Cc3cc(N4CCOCC4)c(F)cn3)nc2c1 (stereo not shown) [Example 4, 5-methoxy-2-(4-morpholino-5-fluoro-2-pyridvlmethylsulphinyl)-(lH)-benzimidazole]	51%
COc1ccc2[nH]c([S+]([O-])Cc3nccc(N(C)C)c3F)nc2c1 (stereo not shown) [Example 6, 5-methoxy-2-(4-dimethylamino-3-fluoro-2-pyridylmethylsulphinyl)-(1H)-benzimidazole]	26%
COc1ccc2[nH]c([S+]([O-])Cc3cc(N(C)C)c(F)cn3)nc2c1 (stereo not shown) [Example 8, 5-methoxy-2-(4-dimethylamino-5-fluoro-2-pyridylmethylsulphinyl)-(1H)-benzimidazole]	37%
